In article PMC12481569, “Novltex: A New Class of Antibiotics with Potent Activity against Multidrug-Resistant Bacterial Pathogens–Design, Synthesis, and Biological Evaluation” (Journal of Medicinal Chemistry, 2025):
Positions of bridges follow the written chain, without caps; N, C: chain ends. Non-standard residues stand in square brackets, D forms with d. Residues, ends and D or L forms follow the SMILES beside them. dCha = N[C@H](CC1CCCCC1)C(=O)O

How the values were obtained:
MRSA DM21455 = experiment: Cytoplasmic membrane potential DiSC3(5) assay; type: cell-based, Staphylococcus aureus; details: 1× to 16× MIC, 1 h, room temperature, ex 622/em 670 nm; pronounced at 4× MIC
Experimental: To determine whether the bactericidal activity of analogue 12 is linked to bacterial membrane perturbations, we performed a DiSC3(5) assay, which utilizes a membrane-potential-sensitive dye to assess cytoplasmic membrane depolarization of MRSA. […]
day, cells were treated in triplicates with increasing concentrations of Novltex analogue 12, as indicated in the corresponding figure and the figure legend (Figure 4A-C). Cells were treated with 1 µM Staurosporine (MedChemExpress #HY-15141) as a positive kill control. Cell viability assessed after 24 h or 48 h incubation using an MTS-based CellTiter 96® AQueous One Solution Cell Proliferation Assay (Promega #G3582, Southampton UK) as per manufacturer’s instructions. Absorbance was recorded at 490 nm. Relative cell viability was determined by subtracting the blank (cell culture medium and MTS only) from individual values before normalizing against the untreated control.
Anonymized human blood samples were received from the Health Sciences Authority, Singapore and used as per the institutional guidelines and approved by the Institutional Review Board (IRB -2023-1019) of Nanyang Technological University Singapore. […] The supernatant was transferred to a new 96-well microplate and the absorbance was measured at 576 nm in the Infinite M200 monochromator microplate reader (Tecan Group Ltd., Switzerland). […]

[1] = Lipid II binding, spot-on-lawn assays on S. aureus ATCC 33591; set-up: species or system Staphylococcus aureus; details: overnight 37 °C
Source text: 6 Spot-on-lawn assays to evaluate binding of Lipid II with analogue 12 on S. aureus ATCC 33591. (A) Analogue 12 was premixed with increasing ratios of lipid II (0.5 to 4 equiv) and spotted onto a seeded lawn of S. aureus 33591. Lipid II and analogue 12 were also spotted independently. The position of the analogue 12–lipid II mixture is marked in red. (B) Daptomycin was used as a negative control. Asterisks denote the positions of analogue 12 (black), lipid II (blue), and daptomycin (green) additions.
Analogue 12 was premixed with increasing ratios of lipid II (0.5 to 4 equiv) for 10 min prior to spotting onto agar plates seeded with a lawn of S. aureus ATCC 33591 and incubated overnight.
XII. Lipid II binding determination of analogue 12
Previously reported methods were used to determine the lipid II binding of analogue 126,7. The lipid II used in this study was prepared by chemical synthesis and its preparation and purification has been […]
A: An overnight culture of S. aureus ATCC 33591 was added to LB agar (45 °C) at a final concentration of 0.1% (vol/vol) and pour-plated into 90 mm petri dishes. Binding of 12 to purified lipid II was assessed using a spot-on-lawn assay. Premixed solutions (5 µL) containing analogue 12 (8 µg) with varying concentration of lipid II were spotted onto the agar, alongside individual controls of 12 and lipid II.
After drying, plates were incubated overnight at 37 °C. This assay was performed in duplicates.
B: To assess the interaction between analogue 12 and lipid II, a culture of S. aureus ATCC 33591 was grown overnight in LB broth and inoculated into LB agar at a final concentration of 1% (v/v) at 45°C.
This mixture was evenly distributed into 90mm petri dishes. Antibiotic inhibition haloes were previously determined by spotting analogue 12 and daptomycin (5 μL,8 µg/mL) onto agar plates and measuring the diameter of the halo after overnight incubation at 37 °C . The binding affinity of analogue 12 and lipid II was later examined by applying purified lipid II (300 μM, 2 μL) to the edge of the antibiotic halo. Analogue 12 and Daptomycin were applied to the inoculated agar plate at a spaced distance, once the antimicrobial solution drops had dried, lipid II was spotted on the edge of the inhibition halo. The plates were then incubated overnight at 37 °C. […]

Q: For CC(C)C[C@@H]1NC(=O)[C@H](C)NC(=O)[C@H](NC(=O)[C@H](CO)NC(=O)[C@@H](CCCCN)NC(=O)[C@@H](CC2CCCCC2)NC(=O)[C@@H](N)Cc2ccccc2)[C@H](C)OC(=O)[C@H](CC(C)C)NC1=O [analogue 12, Leu2Cha–Novltex] (H-F[dCha][dK]S[dT]ALL; ester 5-C), which “change in DiSC3(5) fluorescence intensity (membrane depolarization)” value (MRSA DM21455) is on record?
A: substantial increase in fluorescence intensity

Q: What about the “zone of inhibition, spot-on-lawn” value ([1]; absence of lipid II, 8 µg spotted, duplicates) of the same molecule?
A: clear and substantial zone of inhibition

Q: And the “zone of inhibition, spot-on-lawn, premixed with lipid II” value ([1]; lipid II 1:1 ratio, premixed 10 min)?
A: antimicrobial activity was completely abolished

Q: What about the “halo distortion on addition of lipid II” value ([1]; lipid II (300 μM, 2 μL) at the edge of the antibiotic halo, duplicates) of the same molecule?
A: formed a noncircular spot

Q: What about the “zone of inhibition, spot-on-lawn, premixed with lipid II” value ([1]; lipid II ratio 0.5, premixed 10 min) of the same molecule?
A: only a faint zone remained
